Assays:
[1] = Titration (66% DMF); assay type: physicochemical
From the text: Titration (66% DMF): pK=7.4, Apparent Mol. Wt.=463 (457 Calculated) Mass Spectral Analysis (FAB) m/z: 458 [(M+1)^+]

SMILES	pK [1]	melting point
NC(=O)C(O)c1ccc(Oc2cccc(-c3ccccc3)c2)cc1OCCCCC(=O)[O-].[Na+] (racemic) [Example 7, Sodium(RS)-2-(4-carboxybutoxy)-4-(3-phenylphenoxy)phenyl-2-hydroxyacetamide]	7.4	
NC(=O)Cc1ccc(Oc2ccc(F)cc2)cc1 [Example 1, 4-(4-fluorophenoxy)phenylacetamide]		170 to 171 °C
NC(=O)Cc1ccc(Oc2ccccc2)cc1 [Example 2, 4-phenoxyphenylacetamide]		161 to 163 °C
NC(=O)Cc1cccc(Oc2ccccc2)c1 [Example 3, 3-phenoxyphenylacetamide]		115 to 117 °C

Source: patent US6353128B1, “Phenyl acetamides as sPLA2 inhibitors” (Eli Lilly and Company, priority 1996, dated 2002)
